From patent US11738031B2, “Compositions and methods for preventing or treating muscle conditions” (The Board of Trustees of the Leland Stanford Junior …, priority 2017, dated 2023)
Entries after “also recorded” stand apart in the source; their conditions may differ. Read-outs that look alike come from different tables or passages of the source.

Tests used:
[1] = system: endogenous MuSCs in tibialis anterior (TA) muscles; experiment: BLI of endogenous MuSC expansion after intramuscular bupivacaine/dmPGE2 (Example 4); assay type: in vivo, mouse
Experimental: Double-transgenic Pax7^CreERT2;Rosa26-LSL-Luc mice were generated by crossing Pax7^CreERT2 mice and Rosa26-LSL-Luc mice obtained from Jackson Laboratory (Stock #005125). These genotypes were validated by appropriate PCR-based strategies. All mice from transgenic and wild-type strains were of young age (2-4 months). All experiments were conducted using age and gender-matched controls. As depicted in the experimental scheme shown in FIG. 23A, mice were treated with five consecutive daily intraperitoneal injections of tamoxifen to activate luciferase expression under the control of the Pax7 promoter. A week after the last tamoxifen injection, the tibialis anterior (TA) muscles were injected intramuscularly with 50 μL of a drug mixture containing 0.125%, 0.25%, or 0.5% bupivacaine (BPV) (Cayman Chemical Cat #16618) and 10 μg 16,16-dimethyl prostaglandin E2 (dmPGE2; Tocris, Catalog #4027) using a 30 gauge needle on a Hamilton syringe. The contralateral TA received 50 μL of a mixture containing 0.5% bupivacaine (BPV) and DMSO vehicle as baseline sham control. Bioluminescence was assayed at days 3, 7, 10 and 14 post-injury.
Bioluminescence imaging (BLI) was performed using a Xenogen-100 system, as previously described. Briefly, mice were anesthetized using isofluorane inhalation and administered 120 μL D-luciferin (0.1 mmol/kg, reconstituted in PBS; Caliper LifeSciences) by intraperitoneal injection. BLI was acquired with between 5-60 second exposure at F-stop=1.0 at 5 minutes after luciferin injection. Digital images were recorded and analyzed using Living Image software (Caliper LifeSciences). Images were analyzed with a consistent region-of-interest (ROI) placed over each hindlimb to calculate a bioluminescence signal. A bioluminescence signal was calculated in radiance (p s^−1 cm^−2 sr^−1) value of 10^4 to define a positive threshold signal over background. BLI imaging was performed bi-weekly for 2 weeks after coinjection of BPV with dmPGE2 or vehicle.
The data in FIGS. 23A-C and 24 are shown as the mean±s.e.m. with n=6 mice. […]

[2] = system: cyclic AMP levels in MuSCs; experiment: cAMP activity assay (cAMP-Glo); assay type: cell-based, mouse; conditions: PGE2 10 ng/ml, 1 hr
Experimental: cAMP activity assay: MuSCs were treated with DMSO (vehicle) or PGE2 (10 ng/ml) for 1 h and cyclic AMP levels measured according to the cAMP-Glo Assay protocol optimized by the manufacturer (Promega). Each sample was assayed in triplicate and in two independent experiments.
MuSCs were treated with DMSO (vehicle) or PGE2 (10 ng/ml) for 1 h and cyclic AMP levels measured according to the cAMP-Glo Assay protocol optimized by the manufacturer (Promega). Each sample was assayed in triplicate and in two independent experiments.

[3] = system: prostaglandin receptors (Ptger1-4); experiment: Quantitative RT-PCR of prostaglandin receptors in MuSCs; assay type: cell-based, mouse; conditions: 24 hr PGE2 treatment of MuSCs
Experimental: Quantitative RT-PCR: We isolated RNA from MuSCs using the RNeasy Micro Kit (Qiagen). […] We reverse-transcribed cDNA from total mRNA from each sample using the SensiFAST™ cDNA Synthesis Kit (Bioline). We subjected cDNA to RT-PCR using SYBR Green PCR Master Mix (Applied Biosystems) or TaqMan Assays (Applied Biosystems) in an ABI 7900HT Real-Time PCR System (Applied Biosystems). We cycled samples at 95° C. for 10 min and then 40 cycles at 95° C. for 15 s and 60° C. for 1 min. […] For SYBR Green qRT-PCR, we used the following primer sequences: Gapdh, forward 5′-[sequence]-3′ (SEQ ID NO: 1), reverse 5′-[sequence]-3′ (SEQ ID NO: 2); Hpgd, forward 5′-[sequence]-3′ (SEQ ID NO: 3), reverse 5′-[sequence]-3′ (SEQ ID NO: 4); Ptges, forward 5′-[sequence]-3′ (SEQ ID NO: 5), reverse 5′-[sequence]-3′ (SEQ ID NO: 6); Ptges2, forward 5′-[sequence]-3′ (SEQ ID NO: 7), reverse 5′-[sequence]-3′ (SEQ ID NO: 8); Ptger1, forward 5′ [sequence]-3′ (SEQ ID NO: 9), reverse, 5′ [sequence]-3′ (SEQ ID NO: 10), and Ptger2, forward 5′-[sequence]-3′ (SEQ ID NO: 11), reverse 5′-[sequence]-3′ (SEQ ID NO: 12). TaqMan Assays (Applied Biosystems) were used to quantify Pax7, Myogenin, Slco2a1 (PGT), Ptger3 and Ptger4 in samples according to the manufacturer instructions with the TaqMan Universal PCR Master Mix reagent kit (Applied Biosystems). Transcript levels were expressed relative to Gapdh levels. […]

Nurr1 = Nurr1 expression in MuSCs (qRT-PCR, flow cytometry); assay type: cell-based, mouse; conditions: 24 hr PGE2 treatment in culture
Experimental: We analyzed NURR1 levels by flow cytometry using myogenic progenitors after a 24 hr treatment of vehicle (DMSO) or PGE2 (10 ng/ml), or from MuSCs transfected with shSCR or shNurr1 (see Knockdown assays section). We collected cells by incubation with 0.5% trypsin in PBS for 2 min at 37° C. We fixed the cells using 1.6% paraformaldehyde in PBS and then permeabilized them in ice-cold methanol. We then blocked them in staining buffer (0.5% BSA in PBS) for 30 min at room temperature and stained them with a Mouse monoclonal anti-Nurr1 (Abcam, catalog #ab41917, 1:75) primary antibody or anti-mouse IgG control (Jackson ImmunoResearch Laboratories). […] We analyzed the cells on a FACS LSR II cytometer using FACSDiva software (BD Biosciences) in the Stanford Shared FACS Facility, purchased using an NIH S10 Shared Instrument Grant (S10RR027431-01).
We isolated RNA from MuSCs using the RNeasy Micro Kit (Qiagen). […] To quantify relative transcript levels, we used 2^ΔΔCt to compare treated and untreated samples and expressed the results relative to Gapdh. […] TaqMan Assays (Applied Biosystems) were used to quantify Pax7, Myogenin, Nurr1, Ptger3 and Ptger4 in samples according to the manufacturer instructions with the TaqMan Universal PCR Master Mix reagent kit (Applied Biosystems). […]

[4] = cited from earlier work; for half-life: in vivo
[5] = PGE2 20 μg (or 4 mg/kg); cited from earlier work

SMILES	log fold change in BLI two weeks after injection ([1]; 50 μL into TA, BPV plus 10 μg dmPGE2 compared to BPV/vehicle, dmPGE2 only group)	muscle regeneration vs dmPGE2 dose ([1]; as stated in summary of Example 4)	intracellular cAMP levels [2]	transcript levels of prostaglandin receptors (Ptger1-4) after PGE2 treatment [3]	Nurr1 mRNA and protein expression (Nurr1)	half-life in vivo [4]	half-life [4] [min]	half-life ([4]; listed as Dinoprostone)	tolerability of proposed maximum dose in rodents [5]
CCCCC(C)(C)[C@H](O)/C=C/[C@H]1[C@H](O)CC(=O)[C@@H]1C/C=C\CCCC(=O)O [dmPGE2, 16,16-dimethyl prostaglandin E2]	No detectable change	more pronounced muscle regeneration							
CCCCC[C@H](O)/C=C/[C@H]1[C@H](O)CC(=O)[C@@H]1C/C=C\CCCC(=O)O [PGE2, prostaglandin E2]			elevated downstream intracellular cyclic AMP (cAMP) levels	only receptors upregulated after PGE2 treatment of MuSCs are Ptger1 and Ptger4; also recorded: the most highly expressed receptor in MuSCs is Ptger4	increased Nurr1 mRNA and protein expression	relatively short	5	less than 5 minutes	without deleterious effects
